Measurements from patent US10690657B2, “Epithelial tissue model” (Nederlandse Organisatie voor …, priority 2012, dated 2020).

Columns and labels:
porcine jejunal tissue [1] = tested on: porcine jejunal tissue
From the text: (§1) After anesthesia of the animal and resection of intestinal tissue, the tissue was directly added to ice-cold carbonated (5% CO2 and 95% O2) KRB buffer, pH 7.4, further referred to as KRB buffer. • 2. Intestinal tissue was transported to the test site in ice-cold KRB buffer • 3. At the test site, the intestinal tissue was cut open, rinsed with ice-cold KRB buffer when needed, placed on a petridish, submerged in ice-cold KRB buffer and muscle layers were stripped of. • 4. Intestinal segments with a diameter of 20 mm were punched, added to ice-cold KRB buffer, and kept on ice. • 5. After collecting all the segments needed for the incubation, the system was assembled (including to a total of 24 segments per system) and placed on ice. […] Subsequently, samples were taken from the apical and basolateral compartments for further analysis either using liquid scintillation counting (LSC), UV-Absorbance, Fluorescence, High Pressure Liquid Chromatography (HPLC), Liquid chromatography-Mass Spectrometry (LCMS), Liquid chromatography-Tandem Mass Spectrometry (LC-MSMS), Enzyme-Linked Immunosorbent Assay (ELISA), or Radio-Immuno Assay (RIA). • 11. […]
(§2) The apparent permeability value (Papp) is calculated using the following equation: Papp=(dQ/dt)/(A*C0), where dQ/dt refers to the permeability rate (mol/s), A is the surface area filter insert (cm2) and C0 is the initial concentration (mol/L). […]

porcine jejunal tissue [2] = experiment: Transport (apical to basolateral) across porcine jejunal tissue, Papp; conditions: animal of 12 kg body weight in comparison to an animal of 17 or 20 kg (FIG. 10)
From the text: as §1, §2

porcine ileal tissue = experiment: Translocation across porcine ileal tissue; type: in vitro ADME; conditions: between 0 and 60 minutes (FIG. 11)
Protocol: Translocation of the bacterial endotoxin lipopoly-saccharide (LPS) across the porcine ileal tissue during incubation time.

Cn1c(=O)c2c(ncn2C)n(C)c1=O [caffeine]
Apparent permeability (Papp) over time (porcine jejunal tissue [1]): constant Papp value over time

Cn1c(N)nc2ncc(-c3ccccc3)cc21 [[14C]-PhIP, 2-amino-1-methyl-6-phenylimidazo[4,5-b]pyridine]
Transport across porcine jejunal tissue from animals with a different age (porcine jejunal tissue [2]): higher transport

lipopolysaccharide [LPS]
Lag time of transport across porcine ileal tissue (porcine ileal tissue): clear lag time of transport
